# According to patent publication US10022382B2, “RNA polymerase I inhibitors and uses thereof” (Tel HaShomer Medical Research Infrastructure and Services …, priority 2013, dated 2018):
# What was measured:
# [1] = Toxicity (LD50, survival) in the EAE model, continuous administration; assay type: in vivo; settings: C57BL/6J, mouse, in vivo, oral; EAE prevention model, continuous administration
# Experimental: (§1) The animals were evaluated for signs of acute toxicity and survival during the entire administration period in the EAE model.
# (§2) The therapeutic index (LD50/ED50), which is also referred to herein as Safety Margin (SM), was then determined based on the EAE model.
# C57BL/6J mice = experiment: as above; assay type: in vivo
# Experimental: as §1, §2
# naive mice = experiment: Single dose oral toxicity in naive mice; assay type: in vivo; settings: single oral dose 3 mg/kg to 500.0 mg/kg, 24 h
# Experimental: The toxicity of oral administration of a single dose of Compound 10 was tested in naïve mice using range from 3 mg/kg to 500.0 mg/kg.
# Solubility in mQ water = assay type: physicochemical; settings: 50 mg in 0.5 mL mQ water, room temperature
# Experimental: The solubility of Compounds 1 and 10 was determined by dissolving 50 mg of the tested compound in 0.5 mL of mQ water, at room temperature.
# splenocytes = experiment: Viability, proliferation and apoptosis of MOG 35-55 incubated splenocytes from immunized mice (XTT, BrdU, flow cytometry); assay type: cell-based; settings: splenocytes 14 days post immunization, 72 h MOG 35-55, vs vehicle
# Experimental: In addition, viability, proliferation and apoptosis of splenocytes isolated from mice 14 days post immunization and incubated for 72 h with MOG 35-55 were assessed by XTT, BrdU and flow cytometry (Annexin V and propidium iodide double staining) assays, respectively.
# Pol II = experiment: Cell-free polymerase II transcription from CMV promoter; assay type: biochemical, human; settings: 200 nM
# Experimental: Transcription by polymerase II from CMV promoter was tested similarly using the template provided HeLa scribe kit of Promega, further processing as described above and analysis of transcript with template specific primers: POL II forward primer: ctatgcgcacccgttctc (SEQ ID NO: 73), Pol II reverse primer: gtagcgaagcgagcagga (SEQ ID NO: 74). Probe ID: #70, cat. no. 04688937001 (Roche), was used for both reactions.
# pre-rRNA = experiment: Q-RT-PCR of pre-rRNA in splenocytes of treated EAE mice; assay type: in vivo; settings: 12.5 mg/Kg, 17 days following immunization
# Experimental: RNA Extraction: For in vivo experiments spleens from EAE mice were isolated at day 17 post immunization and splenocytes were re-stimulated for 72 h hours in the presence of 5.0 μg/ml MOG35-55. For in-vitro experiments spleens from intact mice were isolated and splenocytes were stimulated with for 72 h in the presence of PHA. RNA was extracted from splenocytes of both the in-vitro and in-vivo experiments by robotic ABI PRISM, Applied biosystem 6100 Nucleic Acid Prep Station. To avoid genomic DNA contamination samples were treated with DNase I (Roche). The quality and integrity of the total RNA preparation was confirmed using a NanoDrop 2000c Spectrophotometer (Thermo Scientific).
# Quantitative RT-PCR of Pre-rRNA: Complementary DNA was obtained from the extracted RNA by the High capacity cDNA reverse transcription kit (Applied Biosystems, CA, USA) following manufacturer's instructions. To confirm the role of POL1 pathway suppression by POL1-Inhibitors, the expression level of pre-rRNA transcript, a key gene of the RNA polymerase I pathway, was evaluated by Q-RT-PCR (n=3 per group). All PCR reactions were performed on a Light Cycler 480 instrument (Roche Diagnostic). The pre-rRNA, specific primers used were Forward: […] (SEQ ID NO: 69) and Reverse: […] (SEQ ID NO: 70) with a quantification probe (Roche, Probe ID #1, cat. no. 04684974001). […]
# [2] = Bioavailability: serum level after oral gavage or IV; assay type: in vivo, mice; settings: for time to maximal concentration: healthy C57B6J female mice
# Experimental: Bioavailability: Determination of the level of the tested compound in serum was done following oral gavage. Blood samples (0.5 mL) were collected and immediately centrifuged at 5,000 rpm for 10 minutes. The serum was separated and stored at −20° C. until fluoprometric analysis by Tecan SpectraFluor, based on the specific excitation/emission values of the tested compound was conducted. The pharmacokinetic parameters including serum maximum concentration (Cmax), the time needed to reach Cmax (Tmax), and half-life (T1/2), were calculated to evaluate oral bioavailability. The serum concentration after oral gavages was calculated according to a calibration curve for each compound in the serum. The Pharmacokinetic properties of compound 10 were quantified by the LCMS method described below. The concentration of Compound 10 was calculated with a calibration curve. The serum was prepared for analysis using protein precipitation. 15 μL of water were added to 15 μL of serum and a H2O: MeOH: CHCl3 (90:120:30) solution was added. The supernatant was subjected to LCMS analysis equipped with a PHENOMENEX® C-18 RP column.
# [3] = EAE mice, 30 mg/kg every alternate day until disease onset
structure (smiles),measurement,setting,value
"Cc1cnc(CNC(=O)c2/c(=N/c3ccccc3)c3ccc(N4CCCN(C)CC4)nc3n3c2sc2ccccc23)cn1 [Compound 10, (E)-2-(4-methyl-1,4-diazepan-1-yl)-N-((5-methylpyrazin-2-yl)methyl)-5-(phenylimino)-5H-benzo[4,5]thiazolo[3,2-a][1,8]naphthyridine-6-carboxamide]",LD50,[1],30 mg/kg
same,survival,"C57BL/6J mice; C57BL/6J, mouse, in vivo, 28 days",100%
same,behavioral changes,C57BL/6J mice; [3],No behavioral changes
same,survival,C57BL/6J mice; [3],No effect on survival
same,tolerability,C57BL/6J mice; [3],well tolerated
same,signs of toxicity,"C57BL/6J mice; all treated groups, EAE model, alternate days",without apparent signs of toxicity
same,behavioral changes,naive mice,No behavioral changes
same,survival,naive mice,No effect on survival
same,solubility,Solubility in mQ water,immediately dissolved in the aqueous solution
same,apoptosis (Annexin V and propidium iodide),splenocytes,induced apoptosis in CD4+ lymphocytes
same,cell proliferation (BrdU),splenocytes,suppressed cell proliferation
same,viability (XTT),splenocytes,reduced viability
same,effect on Pol II transcription from the CMV promoter,Pol II,5%
same,decrease in pre-rRNA mRNA levels compared to vehicle,pre-rRNA,5.9 folds
same,bioavailability AUC(oral)/AUC(IV),"[2]; 12.5 mg/kg, up to 168 h",72%
same,time to maximal concentration,"[2]; IV, 12.5 mg/kg",0.5 h
same,Cmax compared to Compound 1,"[2]; mice serum, oral gavage",higher
same,Tmax compared to Compound 1,"[2]; mice serum, oral gavage",lower
same,clearance compared to Compound 1,"[2]; mice serum, oral gavage",faster
same,absorption,"[2]; oral and IV, 12.5 mg/kg",rapidly absorbed
same,time to maximal concentration,"[2]; oral, 12.5 mg/kg",2 h
